With CCCCCc1ccc(-c2ccc(C(C)OC(=O)CCC)cc2)cc1 (single isomer, unassigned; (+)) the melting point was 38.1 °C. NS(=O)(=O)c1ccc(-c2c(-c3ccccc3)noc2C(=O)O)cc1 showed a melting point of 300 °C. In the case of O=C(NCc1cccnc1)c1cc(N2CCN(Cc3ccc(F)cc3)C2=O)n[nH]1, the melting point is reported as 251 to 253 °C. For COC(=O)c1ccc(CN(CC2CCOCC2)S(=O)(=O)c2ccc(Cl)cc2)cc1, the melting point was 115 to 117 °C. Work on O=C1NCCC[C@@H]1NS(=O)(=O)c1cc(F)ccc1F yielded a melting point of 183 to 185 °C. With CC(=O)OC(c1ccc(Cl)c(Cl)c1)C(Cl)(Cl)Cl (stereo not given) the melting point was 85 to 86 °C. For CCOCc1nc2c(N)nc3ccccc3c2n1CCCC(C)=NO, the melting point was 220 to 223 °C. CCCn1cnc2c1c1nnc(-c3ccncc3)n1c(=O)n2CCC gave a melting point of 194 to 199 °C. In the case of Cc1ccc(S(=O)(=O)Oc2ccc(S(=O)(=O)c3ccoc3C(C)C)cc2)cc1, the melting point is reported as 94 °C. For CN(C)CCNc1cc(Oc2ccc3c(C(=O)Nc4cc(C(C)(C)C)nn4-c4ccc(F)cc4)cccc3c2)ncn1, the melting point was 153 to 155 °C. With O=C(NC1CCN(CCc2ccccc2)CC1)C1=Cc2cnc3cccc(n23)S1 the melting point was 216 to 217 °C. With CN1CCN(c2ccc(-c3[nH]nc4c3C(=O)c3c(NC(=O)NN5CCOCC5)cccc3-4)cc2)CC1 the melting point was 245 °C. For COc1ccc2cc(C(=O)O)oc(=O)c2c1OC, the melting point was 262 to 263 °C. Compound O=C(CCc1ccccc1)CN1C(=O)CC1S(=O)c1ccccc1 (mixture of isomers) has a melting point of 49 to 51 °C. CCc1cccc2c(=O)c3c(cnn3C)[nH]c12 gave a melting point of 254 °C. For CCn1c(C)c(C2(N(c3ccccc3)c3ccccc3)OC(=O)c3cccnc32)c2ccccc21 (stereo not given), the melting point was 132 to 136 °C. CCOC(=O)c1c(C)cc2nc(C)n(-c3ccccc3Cl)c(=O)c2c1C gave a melting point of 131 to 132 °C. For COP(=O)(OC)C(C)(C)O, the melting point was 75 to 77 °C. With Cc1c(Cc2ccncc2)nnc(Nc2ccc(Cl)cc2)c1C the melting point was 196 to 199 °C. Compound COC(=O)c1ccc(C(=O)c2cc3c(cc2OCc2ccc(C(C)(C)C)cc2)C(C)(C)CCC3(C)C)cc1 has a melting point of 168 to 170 °C. With CC(=O)N(c1ccccn1)c1ncc(Br)s1 the melting point was 132 to 138 °C. Compound Cn1cc(-c2cc3cccnc3[nH]2)c2cc(O)ccc21 has a melting point of 199 to 200 °C. Work on COc1cccc(-c2nc(-c3ccccc3)c3ncc(-c4cccc5ccccc45)cc3n2)c1 yielded a melting point of 166 to 167 °C. With CCOC(=O)c1cn(C2CC2)c2cc(Cl)c(F)c(Cl)c2c1=O the melting point was 227 to 229 °C. With CC(C)(C)CNc1cc(NCC(C)(C)C)nc(Cl)n1 the melting point was 178 to 185 °C. Work on CC(C)(C)OC(=O)NC1CC1F (stereo not given) yielded a melting point of 58 to 60 °C. CCCCCCCCNC(=O)N1CCC(c2nc(N)nc3ccccc23)CC1 showed a melting point of 85 to 87 °C. Compound COc1cc(C(=O)O)ccc1OCCCCCOc1nc2ccccc2s1 has a melting point of 130 to 131 °C. CCCCOCCOc1ccc(-c2ccc(N3CCC(CC(=O)OCC)C3)c(C=C(C)C(=O)O)c2)cc1 (stereo not given) showed a melting point of 116 °C. O=C(NCCCl)Nc1ccncc1 showed a melting point of 120 to 122 °C. Nc1cc(-c2c[nH]c3ncccc23)c2ccccc2n1 gave a melting point of 244 °C. O=C(Nc1n[nH]c(=S)s1)N[C@@H](Cc1ccc(F)cc1)C(=O)N1CCN(c2ccccn2)CC1 showed a melting point of 240 to 242 °C. Compound OC(CSc1nc[nH]n1)(Cn1cncn1)c1ccc(Cl)cc1Cl (stereo not given) has a melting point of 180 to 182 °C. With COc1cc(OC)c(C(=O)C=CC(=O)O)cc1OC the melting point was 207 to 208 °C. With O=C(NCCCC(=O)N1CCCC1)c1cc(Br)no1 the melting point was 120 to 121 °C. Cc1nnc(CNC(=O)CNC(=O)CN2C(=O)c3ccccc3C2=O)n1-c1ccc(Cl)cc1C(=O)c1ccccc1Cl showed a melting point of 269 to 270 °C. In the case of CN=Cc1ccc2cc(OC)ccc2c1, the melting point is reported as 109 to 110 °C. Work on O=C(NCc1ccc(Cl)cc1)c1cn(Cc2cccc(F)c2)c2sc(CN3CCOCC3)cc2c1=O yielded a melting point of 214 to 215 °C. Work on Cc1oc(-c2ccccc2)nc1COc1ccc(COc2ncccc2C=CC(=O)O)cc1 yielded a melting point of 174 to 175 °C. Work on Clc1ccc(CS[C@H]2CO[C@H](c3ccccc3)OC2)cc1 yielded a melting point of 95 to 99 °C. Compound Clc1ccc(CN2CC=C(/C=C/c3ccccc3)CC2)cc1Cl has a melting point of 123 to 125 °C. In the case of COCCNC(=O)c1cccc(-c2cccc3nc(Cc4cccc(C(F)(F)F)c4)sc23)c1, the melting point is reported as 101 to 102 °C. With COc1cc2c(c3c1OC(C)(C)C3)C(c1cccc(NC(=O)Nc3ccccn3)c1)=NC(C)(C)C2 the melting point was 189 to 191 °C. Work on Cc1c(O)ccc2c(=O)c(-c3ccc(Cl)cc3)coc12 yielded a melting point of 275 °C. Cc1ccc(CCCCc2ccc(C(=O)C[C@@H](C)CC(=O)O)s2)cc1 gave a melting point of 94 °C. With CCOc1cc(C(CS(C)(=O)=O)N2C(=O)c3cccc(NS(C)(=O)=O)c3C2=O)ccc1OC (stereo not given) the melting point was 191 to 193 °C. In the case of COC(=O)C=CC(C)Oc1ccc(OCc2ccccc2)cc1 (stereo not given), the melting point is reported as 80 to 89 °C. Work on O=S(=O)(Nc1ccc2c(OCc3nc(-c4ccc(F)cc4)sc3Br)cccc2c1)C(F)(F)F yielded a melting point of 139 to 140 °C. For O=Cc1cccc(/C=C/c2ccc3cc(F)ccc3n2)c1, the melting point was 110 to 111 °C. Cc1ccc(S(=O)(=O)Nc2ccc(C#N)cc2)cc1 gave a melting point of 182 to 184 °C. CCOC(=O)c1cc(OC(C)=O)c2c(c1)c1ccccc1n2C showed a melting point of 123 to 125 °C. Compound CCOC(=O)C(CCC#N)(C(=O)OCC)c1ccc([N+](=O)[O-])cn1 has a melting point of 59.5 to 61 °C. Work on Cc1nnc(-c2ccc3occ(-c4ccc(C=O)c(F)c4)c3c2)o1 yielded a melting point of 207 to 208 °C. With Cc1nn(C)c2ncc3c(c12)CCC(C)C3 (stereo not given) the melting point was 92 to 101 °C. Work on CC(C)(C)C(=O)Nc1ccc(O)cc1 yielded a melting point of 168 to 170 °C. With Cn1ccc(C=C[N+](=O)[O-])c1 the melting point was 90 to 92 °C. CC(=O)Nc1cc2c(cc1[N+](=O)[O-])OC(C)(C)[C@@H](O)[C@@H]2N (relative stereo) gave a melting point of 258 to 261 °C. Compound COc1ccc(Nc2nc(Nc3ccc(OC)c(Cl)c3)nc(OCC3CCCCC3)n2)cc1Cl has a melting point of 188 °C. For O=C(NC(=O)c1c(F)cccc1F)Nc1ccc(Br)cn1, the melting point was 232 to 235 °C. With O=c1[nH]c2ccccc2c(=O)n1CCCCCn1ccnc1 the melting point was 160 to 162 °C. With C=CCNc1nc(NC)c2cc([N+](=O)[O-])ccc2n1 the melting point was 211 to 212 °C. O=C(Cl)c1cc2ccccc2[nH]1 showed a melting point of 120 °C. In the case of COc1cc(-c2ccc3c(c2)CC[C@H]2N(C)C(=O)CC[C@]32C)ccc1O, the melting point is reported as 247 to 250 °C. For Cc1cc(C(=O)O)c(NC(=O)C(C)C)s1, the melting point was 160 to 162 °C. C=CCNC(=NC#N)Nc1ccc(C2=NNC(=O)CC2C)cc1 (stereo not given) gave a melting point of 224 to 226 °C. For CC(=O)N1C(=O)Cc2cc(F)c(N3C(=O)C4=C(CCCC4)C3=O)cc21, the melting point was 191 to 194 °C. Cc1ncc([N+](=O)[O-])n1-c1nccc2[nH]c(=O)ccc12 showed a melting point greater than 300 °C. With O=C1Nc2ccc(Cl)cc2[C@@](/C=C/C2CC2)(C(F)(F)F)O[C@H]1C1CC1 (relative stereo) the melting point was 143 to 144 °C. COCCOC(=O)c1cc(-n2c(OC)nc(C(F)(F)C(F)(F)F)cc2=O)c(F)cc1Cl gave a melting point of 92 to 94 °C. Compound Cn1c(=O)c(NS(C)(=O)=O)c(N2CCN(C(=O)c3cccs3)CC2)c2ccccc21 has a melting point of 223 °C. N#Cc1c(N2CCc3ccccc3CC2)nc(C2CC2)n(CC(F)(F)F)c1=O showed a melting point of 116 to 118 °C. With CCc1c(OC)c(C)c(OC)c2c1C(=O)N(CSc1nnnn1-c1ccccc1)S2(=O)=O the melting point was 44 to 46 °C. With C=C1CC2C3CCC4=CC(=O)CCC4(C)C3=CCC2(C)C1(O)C(C)=O (stereo not given) the melting point was 147 to 162 °C. For C1CCC(C2CNCCNCCNCCNCCN2)CC1 (stereo not given), the melting point was 67 to 69.5 °C. With CCOC(=O)c1cc(=O)n(CCC(C(=O)NO)N(C)S(=O)(=O)c2ccc(Oc3ccccc3)cc2)c(=O)[nH]1 (stereo not given) the melting point was 159 to 160 °C. Work on CC(C)n1cc(-c2ccc(F)cc2)nn1 yielded a melting point of 54 to 55 °C. O=C(NCCN1CCC(n2c(=O)[nH]c3ccccc32)CC1)c1ccco1 gave a melting point of 229 °C. Work on O=C(c1ccccc1)c1cnn2c(-c3cccnc3)ccnc12 yielded a melting point of 202 to 203 °C. Brc1ccc2c(c1)oc1cc(Br)ccc12 showed a melting point of 199 to 200 °C. COC(=O)c1cccc(Oc2cccc(-c3nn(Cc4ccc(C(F)(F)P(=O)(O)O)c(Cl)c4)c(=Nc4ccc(Cl)c(Cl)c4)s3)c2)c1 showed a melting point of 137 to 139 °C. For COc1ccc2c(Br)csc2c1, the melting point was 62 °C. Work on CC(=O)c1ccc(=O)[nH]c1C=CN(C)C yielded a melting point of 238 to 240 °C. With Cc1nnc(OCC(F)(F)F)c(-c2c(F)cc(F)cc2F)c1-c1ccc(Cl)cc1 the melting point was 105 to 108 °C. O=c1c(-c2ccc(Cl)cc2)nc2ccccc2n1CC(F)F showed a melting point of 133 to 136 °C. With COc1ccc(-c2cc(Nc3ccc(NS(C)(=O)=O)cc3)nc(C)n2)cc1OC the melting point was 180 to 185 °C. O=c1c(Cl)c(Cl)cnn1[C@@H]1C[C@H](O)[C@@H](O)[C@H]1O (racemic) showed a melting point of 163 °C. CC(=O)OC1C(N2CCCCC2)CC2C3CCC4CCC(N5CCCCC5)CC4(C)C3CCC21C (stereo not given) gave a melting point of 156 to 161 °C. CC(C)(C)C1CCc2c(c3ccccc3n2CC[N+]2([O-])CCCC2)C1 (stereo not given) showed a melting point of 163 to 165 °C. Compound CC(C)N(CCOc1ccccc1NC(=O)c1cccc2[nH]ccc12)C(C)C has a melting point of 145 °C. COC(=O)[C@H](Cc1ccc(CC(=O)O)cc1)NC(=O)OC(C)(C)C gave a melting point of 141 to 143 °C. Cc1cc(C)n(Cc2ccccc2Cl)c(=O)c1C#N showed a melting point of 243 to 245 °C. Compound O=C(O)c1ccc2c(c1)C(=O)c1cccc(C(=O)O)c1S2(=O)=O has a melting point of 350 to 351 °C. CCNc1cc(NS(=O)(=O)c2ccc(N)cc2)nc(N(C)C)n1 gave a melting point of 237 to 238 °C. COc1cc(C2=Nc3ccc(N4CCOCC4)cc3C(=O)C2)ccc1O showed a melting point of 297 to 299 °C. With O=C1NCCN1c1nc(-c2ccc(Br)cc2)cs1 the melting point was 230 to 233 °C. Compound C[C@H]1c2cc(F)ccc2-c2ccc(F)cc2N1S(=O)(=O)c1cccc(O)c1 has a melting point of 181 to 182 °C. In the case of O=C1NC(=O)C(CCCc2ccc3oc(Cc4ccc5ccccc5c4)nc3c2)O1 (stereo not given), the melting point is reported as 151 to 152 °C. With CC1(C)Nc2cc(Br)ccc2-n2cccc21 the melting point was 89 to 91 °C. O=C(Oc1ccc(F)cc1)c1cccc(F)c1 gave a melting point of 63.5 to 66 °C. In the case of CNN(NC)C(=O)Nc1cccc2c1C(=O)c1c-2n[nH]c1-c1cccs1, the melting point is reported as 279 °C.

— a melting point compilation (Tetko et al.; mined from patent text by program, amines drawn as free bases though some values may be those of a salt)
